From patent publication US20250115569A1, “SULFONAMIDE COMPOUNDS FOR THE TREATMENT OF NEUROLOGICAL CONDITIONS” (LARIO THERAPEUTICS LIMITED, priority 2021, published 2025)

Test system: Human Cav2.3 channel
Assay: Human Cav2.3 channel calcium-influx assay
Assay type: cell-based
Conditions: Fluo8 fluorescence, HEK-293 T-Rex/Kir2.1/Cav2.3e cells, without pluronic acid
Method: HEK-293 T-Rex cells were transfected with pcDNA3.1-Kir2.1 to generate a stable cell line. After antibiotic selection, the obtained stable pools were analysed using FLIPR^TETRA (membrane potential assay), and a limiting dilution was performed and a HEK-293 T-Rex/Kir2.1 clone was selected. The clone was transfected with pcDNA3.1-Cav2.3e and pBud-Cav-β4-α2δ1 to generate a stable cell line where the Cav2.3e expression is inducible. After antibiotic selection, functional clone pool analysis and two successive limiting dilutions, the final clone underwent a qPCR analysis and a biophysical and pharmacological validation using patch-clamp.
A compound plate, containing 10 test compounds in eight-points dose response with n=4, was prepared. Test compounds dose response curves were prepared in automated fashion in 100% DMSO at CyBio Felix and starting from a stock solution in 100% DMSO; a defined volume was serially moved into destination wells pre-filled with the desired DMSO volume; stock solution concentration volumes were dependent on the final compounds concentrations to be tested and the final DMSO content used in the assay. For the assay test compounds dose response curves ranged from 30 μM and half log dilution with 0.3% final DMSO. In order to obtain the 8-points dose response curve all the concentrations were created by starting from a 10 mM DMSO stock solution and then moving 9.5 μL into a destination well pre-filled with 20.5 μL of 100% DMSO and repeating this step seven times. This initial step was done into 96 MTP plates, 10 compounds/plate. One 384 MTP was then reformatted to contain all the 10 compounds at 8 concentrations, quadruplicate data points. This so obtained 384 MTP compound plate served as source plate in a “mother to child” process with a CyBi®-Well dispenser in which 0.7 μL of compounds were moved into a destination plate pre-filled with 57.6 μL of Tyrode's buffer 0 mM K+, thus obtaining 4× concentrated compounds solution. In columns 1-2 and 23-24 the control wells were added. Both “source” compound plate and “destination” compound plate were barcoded and a relationship between the two plates was thus generated.
The day before the experiment, cells were detached by gentle wash with DPBS, followed by 5 min incubation at 37° C. with Trypsin solution. Detached cells were diluted with OptiMEM+Doxycycline at 0.2 μg/mL, counted and plated in Poly-D-Lysine coated black/clear bottom (15.000 c/well in 20 μl/well) by the use of a MATRIX WellMate dispenser. Plates were placed into a humidified incubator at 37° C. with 5% CO2 until the experimental day. 24 h after seeding 10 μL/well of 1.5× Fluo8 NW dye solution prepared in Tyrode's buffer 0 mM K* were added on top of the seeding medium. Cell plates were incubated for 40-60 min at RT in the dark. We then Injected off-line 10 μL/well of test compounds and controls 4× concentrated in Tyrode's Buffer 0 mM K+ with the CyBi®-Well instrument. Cell plates were incubated 3 minutes at RT. Finally, we injected 20 μL/well of 3× concentrated activator solution (K20-Na130-Ca2 buffer: 20 mM KCl, 130 mM NaCl, 2 mM CaCl2, 10 mM HEPES, 10 mM Glucose, final concentrations, prepared starting from “K0-Na150-Ca2” and “K150-Na0-Ca2” buffers) at FDSS7000EX instrument and read emitted fluorescence for 130 seconds.
Data analysis was performed with Genedata Screener® software and reported compounds activity as % effect in relation to the normalization standards. The Kinetic Response Value (KRV) is calculated as follows:
KRV=Maximal fluorescence recorded from second 5 to second 130 minus baseline fluorescence, computed as average from second 1 to second 2, of the kinetic trace. The KRV was normalized versus Neutral Controls and Inhibitor Controls in order to obtain the Activity[%] for each well. […] Therefore, the compound activity values were scaled (based on the two references) to a common range (two-point normalization). […]

## CCN([C@H](c1ccc(F)cc1)C(F)(F)F)S(=O)(=O)c1csc(C#N)c1 (stereo in doubt) [Example 43, 5-Cyano-N-ethyl-N-(2,2,2-trifluoro-1-(4-fluorophenyl)ethyl)thiophene-3-sulfonamide]
  Cav2.3 (pIC50): 6.69

## CCN([C@@H](c1ccc(F)cc1)C(F)(F)F)S(=O)(=O)c1csc(C#N)c1 (stereo in doubt) [Example 44, 5-cyano-N-ethyl-N-(2,2,2-trifluoro-1-(4-fluorophenyl)ethyl)thiophene-3-sulfonamide]
  Cav2.3 (pIC50): 5.23

## CCN(C(c1ccc(F)cc1)C(F)(F)F)S(=O)(=O)c1ccc(C#N)s1 (centres unmarked) [Example 3, 5-cyano-N-ethyl-N-(2,2,2-trifluoro-1-(4-fluorophenyl)ethyl)thiophene-2-sulfonamide]
  Cav2.3 (pIC50): 6.31

## CN([C@H](c1ccc(F)cc1)C(F)(F)F)S(=O)(=O)c1ccc(C#N)s1 [Example 6, (R)-5-cyano-N-methyl-N-(2,2,2-trifluoro-1-(4-fluorophenyl)ethyl)thiophene-2-sulfonamide]
  Cav2.3 (pIC50): 6.22

## CN([C@@H](c1ccc(F)cc1)C(F)(F)F)S(=O)(=O)c1ccc(C#N)s1 [Example 7, (S)-5-cyano-N-methyl-N-(2,2,2-trifluoro-1-(4-fluorophenyl)ethyl)thiophene-2-sulfonamide]
  Cav2.3 (pIC50): 5.44

## CCN(C(c1ccc(F)cc1)C(F)(F)F)S(=O)(=O)c1ccc(C)s1 (centres unmarked) [Example 8, N-ethyl-5-methyl-N-(2,2,2-trifluoro-1-(4-fluorophenyl)ethyl)thiophene-2-sulfonamide]
  Cav2.3 (pIC50): 5.53

## CCN([C@H](c1ccc(F)cc1)C(F)(F)F)S(=O)(=O)c1ccc(C)s1 [Example 10, (R)—N-ethyl-5-methyl-N-(2,2,2-trifluoro-1-(4-fluorophenyl)ethyl)thiophene-2-sulfonamide]
  Cav2.3 (pIC50): 5.66

## Cc1ccc(S(=O)(=O)N(C)C(c2ccc(F)cc2)C(F)(F)F)s1 (centres unmarked) [Example 11, N,5-dimethyl-N-(2,2,2-trifluoro-1-(4-fluorophenyl)ethyl)thiophene-2-sulfonamide]
  Cav2.3 (pIC50): 5.22

## Cc1ccc(S(=O)(=O)N(C)[C@@H](c2ccc(F)cc2)C(F)(F)F)s1 [Example 12, (S)—N,5-dimethyl-N-(2,2,2-trifluoro-1-(4-fluorophenyl)ethyl)thiophene-2-sulfonamide]
  Cav2.3 (pIC50): 5.00

## CCN(C(c1ccc(F)cc1)C(F)(F)F)S(=O)(=O)c1ccc(F)s1 (centres unmarked) [Example 14, N-ethyl-5-fluoro-N-(2,2,2-trifluoro-1-(4-fluorophenyl)ethyl)thiophene-2-sulfonamide]
  Cav2.3 (pIC50): 5.64

## CCN([C@@H](c1ccc(F)cc1)C(F)(F)F)S(=O)(=O)c1ccc(F)s1 [Example 15, (S)—N-ethyl-5-fluoro-N-(2,2,2-trifluoro-1-(4-fluorophenyl)ethyl)thiophene-2-sulfonamide]
  Cav2.3 (pIC50): 4.94

## CCN([C@H](c1ccc(F)cc1)C(F)(F)F)S(=O)(=O)c1ccc(F)s1 [Example 16, (R)—N-ethyl-5-fluoro-N-(2,2,2-trifluoro-1-(4-fluorophenyl)ethyl)thiophene-2-sulfonamide]
  Cav2.3 (pIC50): 5.78

## CN(C(c1ccc(F)cc1)C(F)F)S(=O)(=O)c1ccc(Cl)s1 (centres unmarked) [Example 23, 5-chloro-N-(2,2-difluoro-1-(4-fluorophenyl)ethyl)-N-methylthiophene-2-sulfonamide]
  Cav2.3 (pIC50): 5.15

## CN(C)C(=O)c1ccc(S(=O)(=O)NC(c2ccc(F)cc2)C(F)(F)F)s1 (centres unmarked) [Example 24, N,N-dimethyl-5-(N-(2,2,2-trifluoro-1-(4-fluorophenyl)ethyl)sulfamoyl)thiophene-2-carboxamide]
  Cav2.3 (pIC50): 4.89

## CCN(C(c1ccc(F)cc1)C(F)(F)F)S(=O)(=O)c1cncc(C#N)c1 (centres unmarked) [Example 26, 5-cyano-N-ethyl-N-(2,2,2-trifluoro-1-(4-fluorophenyl)ethyl)pyridine-3-sulfonamide]
  Cav2.3 (pIC50): 7.49

## CCN(C(c1ccc(F)cc1)C(F)(F)F)S(=O)(=O)c1ccc2c(c1)COCC2 (centres unmarked) [Example 29, N-ethyl-N-(2,2,2-trifluoro-1-(4-fluorophenyl)ethyl)isochromane-7-sulfonamide]
  Cav2.3 (pIC50): 6.18

## CCN(C(c1ccc(F)cc1)C(F)(F)F)S(=O)(=O)c1cccc(C#N)n1 (centres unmarked) [Example 30, 6-cyano-N-ethyl-N-(2,2,2-trifluoro-1-(4-fluorophenyl)ethyl)pyridine-2-sulfonamide]
  Cav2.3 (pIC50): 6.62

## CCN(C(c1ccc(F)cc1)C(F)(F)F)S(=O)(=O)c1cc(C)c(Cl)s1 (centres unmarked) [Example 31, 5-chloro-N-ethyl-4-methyl-N-(2,2,2-trifluoro-1-(4-fluorophenyl)ethyl)thiophene-2-sulfonamide]
  Cav2.3 (pIC50): 6.43

## CCN([C@H](c1ccc(F)cc1)C(F)(F)F)S(=O)(=O)c1cccc(C)n1 [Example 33, (R)—N-ethyl-6-methyl-N-(2,2,2-trifluoro-1-(4-fluorophenyl)ethyl)pyridine-2-sulfonamide]
  Cav2.3 (pIC50): 6.30

## CCN([C@@H](c1ccc(F)cc1)C(F)(F)F)S(=O)(=O)c1cncc(C#N)c1 [Example 34, (S)-5-cyano-N-ethyl-N-(2,2,2-trifluoro-1-(4-fluorophenyl)ethyl)pyridine-3-sulfonamide]
  Cav2.3 (pIC50): 6.20

## CCN(C(c1ccc(F)cc1)C(F)(F)F)S(=O)(=O)c1ccc2c(c1)COC2 (centres unmarked) [Example 36, N-ethyl-N-(2,2,2-trifluoro-1-(4-fluorophenyl)ethyl)-1,3-dihydroisobenzofuran-5-sulfonamide]
  Cav2.3 (pIC50): 6.58

## CCN([C@@H](c1ccc(F)cc1)C(F)(F)F)S(=O)(=O)c1ccc2c(c1)COC2 [Example 37, (S)—N-ethyl-N-(2,2,2-trifluoro-1-(4-fluorophenyl)ethyl)-1,3-dihydroisobenzofuran-5-sulfonamide]
  Cav2.3 (pIC50): 4.87

## CCN([C@H](c1ccc(F)cc1)C(F)(F)F)S(=O)(=O)c1ccc2c(c1)COC2 [Example 38, (R)—N-ethyl-N-(2,2,2-trifluoro-1-(4-fluorophenyl)ethyl)-1,3-dihydroisobenzofuran-5-sulfonamide]
  Cav2.3 (pIC50): 6.91

## CCN(C(c1ccc(F)cc1)C(F)(F)F)S(=O)(=O)c1ccc2c(c1)OCC2 (centres unmarked) [Example 39, N-ethyl-N-(2,2,2-trifluoro-1-(4-fluorophenyl)ethyl)-2,3-dihydrobenzofuran-6-sulfonamide]
  Cav2.3 (pIC50): 5.82

## CCN([C@H](c1ccc(F)cc1)C(F)(F)F)S(=O)(=O)c1ccc2c(c1)OCC2 [Example 40, (R)—N-ethyl-N-(2,2,2-trifluoro-1-(4-fluorophenyl)ethyl)-2,3-dihydrobenzofuran-6-sulfonamide]
  Cav2.3 (pIC50): 5.62

## CCN([C@@H](c1ccc(F)cc1)C(F)(F)F)S(=O)(=O)c1ccc2c(c1)OCC2 [Example 41, (S)—N-ethyl-N-(2,2,2-trifluoro-1-(4-fluorophenyl)ethyl)-2,3-dihydrobenzofuran-6-sulfonamide]
  Cav2.3 (pIC50): 4.72

## CCN(C(c1ccc(F)cc1)C(F)(F)F)S(=O)(=O)c1csc(C#N)c1 (centres unmarked) [Example 42, 5-Cyano-N-ethyl-N-(2,2,2-trifluoro-1-(4-fluorophenyl)ethyl)thiophene-3-sulfonamide]
  Cav2.3 (pIC50): 6.90

## CCN(C(c1ccc(F)cc1)C(F)(F)F)S(=O)(=O)c1sc(C#N)cc1C (centres unmarked) [Example 45, 5-Cyano-N-ethyl-3-methyl-N-(2,2,2-trifluoro-1-(4-fluorophenyl)ethyl)thiophene-2-sulfonamide]
  Cav2.3 (pIC50): 6.07

## CCN(C(c1ccc(F)cc1)C(F)(F)F)S(=O)(=O)c1cnc(C)c(C#N)c1 (centres unmarked) [Example 55, 5-cyano-N-ethyl-6-methyl-N-(2,2,2-trifluoro-1-(4-fluorophenyl)ethyl)pyridine-3-sulfonamide]
  Cav2.3 (pIC50): 6.33
